Key:
rats = experiment: 4 hour inhalation LC50 in rats; type: in vivo
Method: (§1) For example, heptafluoroisobutyronitrile and 2,3,3,3-tetrafluoro-2-(trifluoromethoxy) propanenitrile have 4 hour inhalation lethal concentration at 50% (“LC-50”, defined as the dose required to produce lethality in half the members of a tested population after a specified test duration) (in rats) values of about 15,000 ppm. […] The nitriles of the present disclosure achieve these lower toxicities without the addition of additives such as nitrite esters as in U.S. Pat. No. 4,547,316.

6 hour inhalation LC50 = type: in vivo; conditions: species not given
Method: as §1

## N#CC(F)(OC(F)(F)F)C(F)(F)F (centres unmarked) [2,3,3,3-tetrafluoro-2-(trifluoromethoxy)propanenitrile]
rats
  4 hour inhalation lethal concentration at 50% (LC-50): about 15,000 ppm

## N#CC(F)(F)C(F)(F)C(F)(F)F [CF3CF2CF2CN]
rats
  4 hour inhalation lethal concentration at 50% (LC-50): less than 6,000 ppm

## N#CC(F)(F)C(F)(F)F [CF3CF2CN]
rats
  4 hour inhalation lethal concentration at 50% (LC-50): 2731 ppm

## N#CC(F)(F)F [CF3CN]
6 hour inhalation LC50
  6 hour inhalation LC50: 240 ppm

## N#CC(F)(C(F)(F)F)C(F)(F)F [heptafluoroisobutyronitrile, Heptafluoroisobutyronitrile]
rats
  4 hour inhalation lethal concentration at 50% (LC-50): about 15,000 ppm
